Measurements taken from patent publication US10300058B2, “Tyrosine kinase inhibitor and uses thereof” (Xuanzhu Pharma Co., Ltd., priority 2014, dated 2019).

Experiments:
[1] = test system: H1975 cell (EGFR-T790M/L858R double mutation); test: In vitro cytologic activity, Celltiter-Glo, H1975 cells; type: cell-based, human; conditions: for IC50: Homo sapiens, NCI-H1975, 72 h, 72 h, Celltiter-Glo
Description: (§1) 1.1 Preparation of Cell Suspension
(§2) Culture medium was removed from culture bottle;
(§3) PBS was added to wash the cells; • pancreatin was added for digestion, and the cells were collected by centrifugation; • the cells were resuspended in a culture medium containing 10% fetal bovine serum, counted and adjusted to a concentration of 2×10^4/mL or 3×10^4/mL (cell viability must be greater than 90%); • the cell suspension was added to a 96-well plate, at 100 μL for each well, i.e., 2000/well for H1975 cell; 3000/well for A431 cell; and • the cells were cultured at 37° C. in 5% CO2 incubator overnight.
(§4) Dilution of a compound in DMSO (or water for injection) • (1) The compound was 5-fold diluted with DMSO from 10 mM to 2 mM, and then 4-fold diluted from 2 mM, to get 10 concentrations; • High control (HC, control without compound inhibition): 0.5% DMSO; • Low control (LC, control with compound inhibition): 1000 nM.
(§5) i. To each well, 99 μL growth medium containing 10% FBS was added, and then 1 μL diluted compound was added, the total volume of the well was […], and the final concentration of the compound was measured.
(§6) The test plate was left at room temperature, and equilibrated for 30 min. 80 μL culture medium was discarded. 60 μL CTG reagent (Celltiter-Glo kit) was added, and shaked for 2 min in a fast shaker, and was placed at room temperature for 10 min. The values were read by Envision instrument.

[2] = test system: A431 cell (wild-type EGFR gene); test: In vitro cytologic activity, Celltiter-Glo, A431 cells; type: cell-based; conditions: Homo sapiens, A-431, 72 h
Description: as §1, §2, §3, §4, §5, §6

[3] = Pharmacokinetics in nude mouse; type: in vivo; conditions: female, BALB/c nude, plasma
Description: Test animal: female nude mouse (BALB/c), weight: 20-25 g/mouse.
Solvent for intraveneous injection (iv): 5% DMSO+10% PEG400+85% (28% HP-β-CD)
Solvent for intragastric administration (po): 2% HPC+0.1% Tween 80
0.1283 mL and 0.1059 mL 1M hydrochloric acid solution were separately added to adjust pH to 4.
Compound 2, 27: Compound 27 (3.18 mg) and Compound 2 (3.17 mg) were weighed, respectively, and solvent for intraveneous injection was added to prepare a clear and transparent solution at a theoretical concentration of 1.0 mg/mL.
After homogeneous dispersion, a suspension at a theoretical concentration of 1.0 mg/mL was obtained.
Collection time point: 0.083 h, 0.25 h, 0.5 h, 1 h, 2 h, 4 h, 6 h, 8 h after administration.
60 μL whole blood was collected from intraocular canthus at each time point, and was centrifuged at 8000 r/min for 6 min in a low-temperature centrifuge to separate plasma; the plasma was stored in a refrigerator at −80° C.
The plasma sample of Compound 2 was analyzed by means of protein precipitation: 10 μL plasma was transferred to a 1.5 mL EP tube, 10 μL blank plasma was added, and the mixture was mixed homogeneously under vortexing. 200 μL internal standard (acetonitrile solution containing 25 ng/mL CNX-2006) was added; the resultant mixture was vortexted for 3 min, and then centrifuged at 12000 rpm for 5 min; 150 μL supernatant was accurately taken, to which 50 μL purified water was added. The resultant mixture was vortexed for 3 min and analyzed by LC-MS/MS.

[4] = test system: H1975 human non-small cell lung cancer xenograft; test: Pharmacodynamics in vivo, H1975 xenograft tumor-bearing nude mice; set-up: species or system BALB/c nude mouse; conditions: PO; for TV (tumor volume) / Body weight After administration / Body weight Before administration: mean ± standard error
Source text: Genus: Rodent, Line: BALB/c nude, age: 6-8 weeks, gender: female, body weight: 18-22 g. Provider of experimental animals: Beijing Ankaiyibo Biological Technology Co. Ltd., Production license No. SCXK(Jing) 2012-0009. Quality Certificate No. 11402400000256 […] The tumor cells in logarithmic growth phase were used in tumor inoculation in vivo. […] When the tumor grew into a volume of about 100 mm^3, the animals were grouped and administered, 8 mice per group. […] Test compound solutions were prepared immediately before administration every day. [table] Vernier caliper was used to measure the volume of tumor twice a week. The long diameter and short diameter of tumor were measured. The volume was calculated by the formula: volume=0.5×long diameter×short diameter^2. According to the measurement results, relative tumor volume (RTV) and relative tumor volume increasing rate (T/C) were calculated. RTV=Vt/V0, wherein Vt is the average value of tumor volume on day t after grouping and administration, V0 is the average value of tumor volume at the day when grouping. T/C=TRTV/CRTV×100%, wherein TRTV is the RTV in the treatment group, and CRTV is the RTV in the solvent control group. […] One-Way ANOVA test was carried out by SPSS17.0 statistic software. Tumor volume was analysed in statistics among groups. P<0.05 is indicative of significant difference.

[5] = molecular target: wild-type EGFR (WT EGFR) (Homo sapiens (Human), UniProt P00533); test: Mobility Shift Assay, in vitro enzyme-inhibiting activity, wild-type EGFR; type: biochemical; conditions: Table 6; Km ATP
Description: (§7) 1. Preparation of Reagents
(§8) 2. Preparation of a Compound Solution
(§9) (1) To the second well of a 96-well plate, 5 μL 10 mM compound (dissolved in DMSO) was added, and 95 μL 100% DMSO was added to prepare 100 μL 0.5 mM compound.
(§10) (2) To other wells, 60 μL 100% DMSO was added. 20 μL compound from the second well was added to the third well, and 4-fold dilution was further performed to get 10 diluted concentrations.
(§11) (3) To the first well and the twelfth well of the 96-well plate, 100 μL 100% DMSO was separately added, and the two wells were used as control wells.
(§12) (4) 10 μL from each well of the 96-well plate was added to another 96-well plate, and 90 μL 1-fold kinase buffer was added.
(§13) (5) 5 μL from the 96-well plate was added to another 384-well plate, for example, transferred from A1 well of the 96-well plate to A1 and A2 wells of the 384-well plate, and transferred from A2 well of the 96-well plate to A3 and A4 wells of the 384-well plate, and so on.
(§14) To 384-well plate, 10 μL 2.5-fold enzyme solution was added, and incubated at room temperature for 10 min.
(§15) (5) Kinase reaction and stop
(§16) After incubation at 28° C. for a period of time (depending on kinase), 25 μL stop solution was added.
(§17) 4. Data on percent conversion was read by Caliper.
(§18) (1) Data on enzyme activity was obtained by Caliper program;
(§19) (2) Inhibition rate of enzyme activity was calculated from the data on enzyme activity by the following formula: Inhibition rate(%)=(maximal value−the measured value of a test compound)/(maximal value-minimal value)×100,
(§20) wherein, the maximal value represents the measured value of DMSO control; and the minimal value represents the measured value of blank control.
(§21) (3) Calculation of IC50 value by XLFit excel.

[6] = molecular target: EGFR T790M (Homo sapiens (Human), UniProt P00533, T790M); test: Mobility Shift Assay, in vitro enzyme-inhibiting activity, EGFR T790M; type: biochemical; conditions: Table 6
Description: as §7, §8, §9, §10, §11, §12, §13, §14, §15, §16, §17, §18, §19, §20, §21

[7] = molecular target: EGFR L858R (Homo sapiens (Human), UniProt P00533, L858R); test: Mobility Shift Assay, in vitro enzyme-inhibiting activity, EGFR L858R; type: biochemical; conditions: Table 6
Description: as §7, §8, §9, §10, §11, §12, §13, §14, §15, §16, §17, §18, §19, §20, §21

[8] = molecular target: EGFR T790M-L858R (Homo sapiens (Human), UniProt P00533, L858R/T790M); test: Mobility Shift Assay, in vitro enzyme-inhibiting activity, EGFR T790M-L858R; type: biochemical; conditions: Table 6
Description: as §7, §8, §9, §10, §11, §12, §13, §14, §15, §16, §17, §18, §19, §20, §21

[9] = molecular target: EGFR (d746-750) (Homo sapiens (Human), UniProt P00533, DEL746-750); test: Mobility Shift Assay, in vitro enzyme-inhibiting activity, EGFR (d746-750); type: biochemical; conditions: Table 6
Description: as §7, §8, §9, §10, §11, §12, §13, §14, §15, §16, §17, §18, §19, §20, §21

[10] = molecular target: EGFR (d746-750)-T790M (Homo sapiens (Human), UniProt P00533, DEL746-750/T790M); test: Mobility Shift Assay, in vitro enzyme-inhibiting activity, EGFR (d746-750)-T790M; type: biochemical; conditions: Table 6
Description: as §7, §8, §9, §10, §11, §12, §13, §14, §15, §16, §17, §18, §19, §20, §21

Sequence of EGFR T790M (P00533 25-1210 T790M): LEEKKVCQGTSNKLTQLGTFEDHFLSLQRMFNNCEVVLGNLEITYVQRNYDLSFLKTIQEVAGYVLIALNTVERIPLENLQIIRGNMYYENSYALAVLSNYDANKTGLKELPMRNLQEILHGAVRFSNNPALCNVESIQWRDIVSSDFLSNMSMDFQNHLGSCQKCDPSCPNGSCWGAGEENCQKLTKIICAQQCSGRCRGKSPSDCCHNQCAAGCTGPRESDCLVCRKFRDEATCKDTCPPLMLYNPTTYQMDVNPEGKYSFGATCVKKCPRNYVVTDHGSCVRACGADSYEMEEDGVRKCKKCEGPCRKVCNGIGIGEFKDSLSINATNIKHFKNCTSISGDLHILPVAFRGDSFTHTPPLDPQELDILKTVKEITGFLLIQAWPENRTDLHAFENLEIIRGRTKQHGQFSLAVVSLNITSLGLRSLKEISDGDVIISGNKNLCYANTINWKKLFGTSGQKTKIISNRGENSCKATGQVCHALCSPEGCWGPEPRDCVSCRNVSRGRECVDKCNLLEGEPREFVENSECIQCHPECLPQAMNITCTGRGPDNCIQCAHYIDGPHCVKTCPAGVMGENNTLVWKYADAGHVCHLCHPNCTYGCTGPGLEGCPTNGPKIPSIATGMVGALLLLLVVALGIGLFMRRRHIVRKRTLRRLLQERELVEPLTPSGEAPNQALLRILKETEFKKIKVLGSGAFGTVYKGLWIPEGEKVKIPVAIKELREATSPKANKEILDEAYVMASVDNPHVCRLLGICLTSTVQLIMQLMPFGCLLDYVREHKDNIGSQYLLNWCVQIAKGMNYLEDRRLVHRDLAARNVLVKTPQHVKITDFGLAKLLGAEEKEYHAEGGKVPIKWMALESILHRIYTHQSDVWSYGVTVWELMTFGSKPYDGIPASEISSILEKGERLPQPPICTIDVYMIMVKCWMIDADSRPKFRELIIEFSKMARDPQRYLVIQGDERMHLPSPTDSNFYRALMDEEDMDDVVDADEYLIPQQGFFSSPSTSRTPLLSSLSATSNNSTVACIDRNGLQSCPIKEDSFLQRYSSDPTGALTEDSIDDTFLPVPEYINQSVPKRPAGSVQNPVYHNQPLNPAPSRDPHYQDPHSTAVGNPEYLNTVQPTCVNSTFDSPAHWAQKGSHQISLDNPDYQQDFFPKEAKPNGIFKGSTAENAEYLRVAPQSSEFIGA
Sequence of EGFR (d746-750)-T790M (P00533 other isoform, or with tags, fused parts or gaps T790M/del 1-668/del 746-750 limits assumed): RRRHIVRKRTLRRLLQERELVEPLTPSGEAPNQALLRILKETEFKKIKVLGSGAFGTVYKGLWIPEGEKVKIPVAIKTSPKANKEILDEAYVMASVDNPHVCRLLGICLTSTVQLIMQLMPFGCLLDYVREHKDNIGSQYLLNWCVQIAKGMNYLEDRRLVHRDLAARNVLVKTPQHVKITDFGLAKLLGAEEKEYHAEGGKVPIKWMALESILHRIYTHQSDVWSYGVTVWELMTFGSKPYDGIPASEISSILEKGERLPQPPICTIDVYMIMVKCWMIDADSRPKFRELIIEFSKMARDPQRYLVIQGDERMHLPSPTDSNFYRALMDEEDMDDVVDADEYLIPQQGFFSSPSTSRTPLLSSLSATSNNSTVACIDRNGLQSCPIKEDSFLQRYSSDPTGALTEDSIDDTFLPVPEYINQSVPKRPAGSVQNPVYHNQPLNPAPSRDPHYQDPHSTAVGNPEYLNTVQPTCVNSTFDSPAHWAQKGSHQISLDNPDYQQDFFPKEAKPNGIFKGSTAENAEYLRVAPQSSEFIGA
Sequence of EGFR L858R (P00533 25-1210 L858R): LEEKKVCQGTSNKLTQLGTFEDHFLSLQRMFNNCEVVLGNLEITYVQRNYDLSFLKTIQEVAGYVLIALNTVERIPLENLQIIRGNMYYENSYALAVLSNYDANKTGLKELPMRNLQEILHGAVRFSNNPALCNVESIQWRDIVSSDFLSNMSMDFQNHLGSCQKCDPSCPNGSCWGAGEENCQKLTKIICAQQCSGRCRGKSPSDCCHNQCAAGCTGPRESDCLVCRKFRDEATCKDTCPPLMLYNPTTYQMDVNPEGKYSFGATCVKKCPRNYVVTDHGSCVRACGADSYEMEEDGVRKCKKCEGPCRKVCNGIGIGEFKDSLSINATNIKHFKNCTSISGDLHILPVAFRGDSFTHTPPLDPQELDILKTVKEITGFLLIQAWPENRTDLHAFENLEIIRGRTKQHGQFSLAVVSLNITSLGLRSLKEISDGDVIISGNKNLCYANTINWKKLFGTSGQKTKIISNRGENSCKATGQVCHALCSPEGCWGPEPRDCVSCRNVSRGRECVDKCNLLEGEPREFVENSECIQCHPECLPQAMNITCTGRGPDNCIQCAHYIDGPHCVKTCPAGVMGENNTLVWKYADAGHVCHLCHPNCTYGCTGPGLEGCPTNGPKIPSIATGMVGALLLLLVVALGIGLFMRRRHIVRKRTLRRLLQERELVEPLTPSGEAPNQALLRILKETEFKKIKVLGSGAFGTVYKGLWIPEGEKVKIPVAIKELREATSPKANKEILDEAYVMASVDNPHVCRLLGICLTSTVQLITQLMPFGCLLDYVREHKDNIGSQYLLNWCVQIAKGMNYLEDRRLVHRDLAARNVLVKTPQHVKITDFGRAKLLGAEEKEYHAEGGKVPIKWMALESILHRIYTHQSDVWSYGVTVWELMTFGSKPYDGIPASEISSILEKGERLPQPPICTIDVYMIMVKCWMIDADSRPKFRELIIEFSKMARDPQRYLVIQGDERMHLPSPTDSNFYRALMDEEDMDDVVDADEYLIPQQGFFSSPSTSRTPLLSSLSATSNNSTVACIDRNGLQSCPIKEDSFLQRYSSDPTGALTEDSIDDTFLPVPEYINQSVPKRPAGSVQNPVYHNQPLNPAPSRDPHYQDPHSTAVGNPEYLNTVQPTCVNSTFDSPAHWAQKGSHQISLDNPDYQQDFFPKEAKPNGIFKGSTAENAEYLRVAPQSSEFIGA
Sequence of EGFR T790M-L858R (P00533 25-1210 T790M/L858R): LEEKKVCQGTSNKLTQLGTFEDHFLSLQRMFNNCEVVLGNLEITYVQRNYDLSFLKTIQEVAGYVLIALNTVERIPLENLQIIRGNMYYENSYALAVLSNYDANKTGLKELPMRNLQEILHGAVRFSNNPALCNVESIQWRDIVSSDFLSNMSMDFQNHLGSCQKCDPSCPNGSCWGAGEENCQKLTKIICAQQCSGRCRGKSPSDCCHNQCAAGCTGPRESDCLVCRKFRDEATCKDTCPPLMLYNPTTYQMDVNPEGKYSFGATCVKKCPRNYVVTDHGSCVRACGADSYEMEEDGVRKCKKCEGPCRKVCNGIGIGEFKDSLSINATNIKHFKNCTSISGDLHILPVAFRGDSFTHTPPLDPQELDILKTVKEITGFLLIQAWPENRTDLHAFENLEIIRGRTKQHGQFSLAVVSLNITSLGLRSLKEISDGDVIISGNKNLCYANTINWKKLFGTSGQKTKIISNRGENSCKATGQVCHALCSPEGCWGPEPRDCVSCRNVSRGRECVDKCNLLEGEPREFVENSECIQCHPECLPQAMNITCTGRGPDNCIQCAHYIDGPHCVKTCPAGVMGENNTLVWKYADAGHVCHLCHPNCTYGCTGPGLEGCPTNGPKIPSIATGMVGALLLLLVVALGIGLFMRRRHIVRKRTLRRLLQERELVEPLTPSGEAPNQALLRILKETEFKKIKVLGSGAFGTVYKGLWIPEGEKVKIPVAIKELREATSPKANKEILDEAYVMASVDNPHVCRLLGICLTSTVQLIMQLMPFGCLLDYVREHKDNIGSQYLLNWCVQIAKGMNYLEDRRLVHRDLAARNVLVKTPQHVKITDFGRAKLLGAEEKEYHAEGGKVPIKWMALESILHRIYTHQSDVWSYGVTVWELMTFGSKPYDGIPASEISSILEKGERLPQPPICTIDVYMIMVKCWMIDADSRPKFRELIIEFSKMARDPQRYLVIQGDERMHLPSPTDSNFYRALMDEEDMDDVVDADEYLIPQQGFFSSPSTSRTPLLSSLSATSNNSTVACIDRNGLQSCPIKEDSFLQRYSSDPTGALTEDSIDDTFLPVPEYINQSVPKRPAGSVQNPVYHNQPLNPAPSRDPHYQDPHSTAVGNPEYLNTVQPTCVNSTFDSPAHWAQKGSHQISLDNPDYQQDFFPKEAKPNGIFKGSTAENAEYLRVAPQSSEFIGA
Sequence of EGFR (d746-750) (P00533 other isoform, or with tags, fused parts or gaps del 1-668/del 746-750 limits assumed): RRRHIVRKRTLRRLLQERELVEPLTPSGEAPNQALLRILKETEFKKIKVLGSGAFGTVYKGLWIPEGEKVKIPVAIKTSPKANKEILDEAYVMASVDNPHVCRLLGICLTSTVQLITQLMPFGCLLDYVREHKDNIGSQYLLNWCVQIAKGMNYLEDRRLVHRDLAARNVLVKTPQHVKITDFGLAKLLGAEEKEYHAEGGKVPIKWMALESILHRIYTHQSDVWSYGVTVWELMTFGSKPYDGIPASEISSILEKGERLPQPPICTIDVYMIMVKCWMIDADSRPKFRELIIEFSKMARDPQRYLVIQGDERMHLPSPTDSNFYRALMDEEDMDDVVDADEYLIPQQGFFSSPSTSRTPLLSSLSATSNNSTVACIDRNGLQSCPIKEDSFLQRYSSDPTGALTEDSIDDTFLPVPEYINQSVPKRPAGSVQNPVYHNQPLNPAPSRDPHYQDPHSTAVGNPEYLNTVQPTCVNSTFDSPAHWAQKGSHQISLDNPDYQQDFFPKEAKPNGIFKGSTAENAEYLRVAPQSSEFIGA

Question: For `C=CC(=O)Nc1cccc(Nc2nc(Nc3ccc(N4CCN(C(C)=O)CC4)cc3OC)ncc2C(F)(F)F)c1` [CO-1686, reference compound], which IC50 ([1]; Table 9) is on record?
Answer: 107 nM

Question: What about the IC50 ([1]; Table 10, unit inferred) of the same molecule?
Answer: 465 nM

Question: What about the IC50 ([2]; Table 9) of the same molecule?
Answer: 911 nM

Question: And the IC50 ([2]; Table 10, unit inferred)?
Answer: 2250 nM

Question: And the AUC(0-t) ([3]; iv, 5 mg/kg)?
Answer: 4070 ng·h/mL

Question: And the clearance ([3]; iv, 5 mg/kg)?
Answer: 20.5 mL/min/kg

Question: What about the AUC(0-t) ([3]; po, 13.2 mg/kg) of the same molecule?
Answer: 2380 ng·h/mL

Question: And the bioavailability ([3]; po, 13.2 mg/kg, read-out: F (absolute bioavailability))?
Answer: 22.1%

Question: What about the “TGI (tumor growth-inhibiting rate)” value ([4]; Table 17, 30 mg/kg) of the same molecule?
Answer: 38.8%

Question: What about the “TV (tumor volume)” value ([4]; Table 17, 30 mg/kg, 19 days after inoculation) of the same molecule?
Answer: 666 ± 30 mm^3

Question: And the “Body weight After administration” value ([4]; Table 17, 30 mg/kg)?
Answer: 22.1 ± 0.3 g

Question: And the “Body weight Before administration” value ([4]; Table 17, 30 mg/kg)?
Answer: 20.6 ± 0.3 g

Question: And the “TGI (tumor growth-inhibiting rate)” value ([4]; Table 17, 100 mg/kg)?
Answer: 71.2%

Question: And the “TV (tumor volume)” value ([4]; Table 17, 100 mg/kg, 19 days after inoculation)?
Answer: 317 ± 44 mm^3

Question: And the “Body weight After administration” value ([4]; Table 17, 100 mg/kg)?
Answer: 21.5 ± 0.5 g

Question: What about the “Body weight Before administration” value ([4]; Table 17, 100 mg/kg) of the same molecule?
Answer: 20.6 ± 0.4 g

Question: What about the “TGI (tumor growth-inhibiting rate)” value ([4]; Table 18, 10 mg/kg, QD × 18) of the same molecule?
Answer: 30.8%

Question: What about the “TV (tumor volume)” value ([4]; Table 18, 10 mg/kg, QD × 18, 23 days after inoculation) of the same molecule?
Answer: 729 ± 78 mm^3

Question: And the “Body weight After administration” value ([4]; Table 18, 10 mg/kg, QD × 18)?
Answer: 22.4 ± 0.5 g

Question: And the “Body weight Before administration” value ([4]; Table 18, 10 mg/kg, QD × 18)?
Answer: 20.7 ± 0.4 g

Question: And the “TGI (tumor growth-inhibiting rate)” value ([4]; Table 18, 30 mg/kg, QD × 18)?
Answer: 55.4%

Question: And the “TV (tumor volume)” value ([4]; Table 18, 30 mg/kg, QD × 18, 23 days after inoculation)?
Answer: 485 ± 65 mm^3

Question: What about the “Body weight After administration” value ([4]; Table 18, 30 mg/kg, QD × 18) of the same molecule?
Answer: 22.4 ± 0.3 g

Question: What about the “Body weight Before administration” value ([4]; Table 18, 30 mg/kg, QD × 18) of the same molecule?
Answer: 21.8 ± 0.3 g

Question: Which IC50 [5] does the source give for `C=CC(=O)Nc1cccc(Nc2nc(Nc3ccc(C4CCN(C)C(=O)C4)cc3OC)ncc2C(F)(F)F)c1` (centres unmarked) [Compound 21, N-(3-((2-((2-methoxy-4-(1-methyl-2-oxopiperidin-4-yl)phenyl)amino)-5-(trifluoromethyl)pyrimidin-4-yl)amino)phenyl)acrylamide] here?
Answer: 236 nM

Question: What about the IC50 ([6]; Km ATP) of the same molecule?
Answer: 3.5 nM

Question: What about the “Selectivity (WT/T790M)” value ([6]; ratio of IC50) of the same molecule?
Answer: 67.4

Question: And the IC50 ([7]; Km ATP)?
Answer: 35 nM

Question: What about the “Selectivity WT/L858R” value ([7]; ratio of IC50) of the same molecule?
Answer: 6.7

Question: What about the IC50 ([8]; Km ATP) of the same molecule?
Answer: 3.3 nM

Question: What about the “Selectivity WT/T790M-L858R” value ([8]; ratio of IC50) of the same molecule?
Answer: 71.5

Question: What about the IC50 ([9]; Km ATP) of the same molecule?
Answer: 28 nM

Question: And the “Selectivity WT/d746-750” value ([9]; ratio of IC50)?
Answer: 8.4

Question: What about the IC50 ([10]; Km ATP, read-out: IC50 EGFR (d746-750)-T790M) of the same molecule?
Answer: 3.5 nM

Question: What about the “Selectivity WT/(d746-750)-T790M” value ([10]; ratio of IC50) of the same molecule?
Answer: 67.4

Question: And the IC50 ([1]; Table 10, unit inferred)?
Answer: 211 nM

Question: And the “Selectivity (A431/H1975)” value ([1]; Table 10, ratio of IC50)?
Answer: 11.9

Question: And the IC50 ([2]; Table 10, unit inferred)?
Answer: 2500 nM
